Measured values from patent US20030216426A1 (REGENTS OF THE UNIVERSITY OF CALIFORNIA, priority 2002, published 2003).
Structures can show the parent of a compound that is named as a salt.

Tests used:
[1] = tested on: control normal lymphocytes (PBL); experiment: Viability/apoptosis of control normal lymphocytes by dye exclusion and flow cytometric analysis; assay type: cell-based, human; conditions: 10 μM, 48 hours exposure, PBL of a healthy volunteer
Method: (§1) After 48 hours exposure, the number of viable cells was determined by dye exclusion and flow cytometric analysis.

[2] = tested on: Chronic lymphocytic leukemia cells (CLL); experiment: Viability/apoptosis of CLL cells by dye exclusion and flow cytometric analysis; assay type: cell-based, human; conditions: 10 μM, 48 hours exposure, CLL cells of two patients
Method: as §1

[3] = cited from earlier work
[4] = cited from earlier work; remark: listed apart in the source
[5] = in vivo; cited from earlier work
CLL cells = conditions: not feasible in vivo due to toxicity; cited from earlier work
[6] = tested on: peripheral blood T lymphocytes; conditions: cited from earlier work
RPMI8226 = experiment: MTT cell viability assay, RPMI8226; assay type: cell-based; conditions: Homo sapiens, RPMI-8226, Myeloma, 72 hours exposure
Method: (§2) After 72 hours exposure, the viability of the cells was determined by the rate of conversion of the formazan salt measuring the optical density (OD) at 570 nm (MTT assay).

U266 = experiment: MTT cell viability assay, U266; assay type: cell-based; conditions: Homo sapiens, U-266, Myeloma, 72 hours exposure
Method: as §2

HCT-116 = experiment: MTT cell viability assay, HCT-116; assay type: cell-based; conditions: Homo sapiens, Colon, 72 hours exposure
Method: as §2

MDA-231 = experiment: MTT cell viability assay, MDA-231; assay type: cell-based; conditions: Homo sapiens, MDA-MB-231, Breast, 72 hours exposure
Method: as §2

MCF7 = experiment: MTT cell viability assay, MCF7; assay type: cell-based; conditions: Homo sapiens, Breast, 72 hours exposure
Method: as §2

RAJI = experiment: MTT cell viability assay, RAJI; assay type: cell-based; conditions: Homo sapiens, Lymphoma, 72 hours exposure
Method: as §2

10C9 = experiment: MTT cell viability assay, 10C9; assay type: cell-based; conditions: Lymphoma, 72 hours exposure
Method: as §2

SU-DHL9 = experiment: MTT cell viability assay, SU-DHL9; assay type: cell-based; conditions: Lymphoma, 72 hours exposure
Method: as §2

SU-DHL1 = experiment: MTT cell viability assay, SU-DHL1; assay type: cell-based; conditions: Homo sapiens, SU-DHL-1, Lymphoma, 72 hours exposure
Method: as §2

[7] = tested on: myeloma cell lines RPM18226; experiment: Apoptosis induction in myeloma cell line; assay type: cell-based; conditions: RPM18226 myeloma cells
LNCap = experiment: MTT cell viability assay, LNCap; assay type: cell-based; conditions: Homo sapiens, Prostate, 72 hours exposure
Method: as §2

Q: Which results are given for `O[C@H](c1cc(C(F)(F)F)nc2c(C(F)(F)F)cccc12)[C@@H]1CCCCN1` (relative stereo) [(+/−) Mefloquine, (R*, S*)-(±)-alpha-2-piperidinyl-2,8-bis (trifluoromethyl)-4-quinolinemethanol]?
A: induction of apoptosis in normal lymphocytes [1]: not against normal lymphocytes; induction of apoptosis in CLL cells [2]: potent apoptosis

Q: Which solubility in ethanol ([3]; ethanol) does the source give for `OC(c1cc(C(F)(F)F)nc2c(C(F)(F)F)cccc12)C1CCCCN1` (stereo not shown) [Mefloquine hydrochloride] here?
A: Its solubility in ethanol is “soluble in ethanol”.

Q: What about the solubility in water ([3]; water) of the same molecule?
A: Its solubility in water is “slightly soluble in water”.

Q: With `O=C(O)c1cc(C(F)(F)F)nc2c(C(F)(F)F)cccc12` [Metabolite, 2,8-bis-trifluoromethyl-4-quinoline carboxylic acid] as the molecule, how does the “Mean (SD) trough concentration, Plasma” value ([4]; healthy volunteers, 250 mg once weekly for 16 weeks, steady state at week 16, plasma) read?
A: The value was 9.80 (5.07) μmol · 1^−1.

Q: What about the “Mean (SD) trough concentration, Serum” value ([4]; healthy volunteers, 250 mg once weekly for 16 weeks, steady state at week 16, serum) of the same molecule?
A: The value was 9.44 (5.00) μmol · 1^−1.

Q: And the “Mean (SD) trough concentration, Whole Blood” value ([4]; healthy volunteers, 250 mg once weekly for 16 weeks, steady state at week 16, whole blood)?
A: Its value is 4.89 (2.58) μmol · 1^−1.

Q: And the “accumulation in the plasma” value ([4]; plasma, text statement referring to Table 1)?
A: Its value is “up to 10 μM”.

Q: What about the “passage of the blood brain barrier / accumulation in the brain” value [5] of the same molecule?
A: Its value is “will not penetrate the brain barrier”.

Q: Which “concentration active against CLL cells” value (CLL cells) does the source give for `CCN(CCO)CCCC(C)Nc1ccnc2cc(Cl)ccc12` (stereo not shown) [Hydroxychloroquine, hydroxychloroquine] here?
A: The value was ≥ 30 µg/mL.

Q: And the “induction of apoptosis in peripheral blood T lymphocytes” value [6]?
A: Its value is “induce apoptosis”.

Q: Which IC50 (RPMI8226) does the source give for `O[C@H](c1cc(C(F)(F)F)nc2c(C(F)(F)F)cccc12)[C@@H]1CCCCN1` (racemic) [(+/−) Mefloquine, (R*, S*)-(±)-alpha-2-piperidinyl-2,8-bis (trifluoromethyl)-4-quinolinemethanol] here?
A: Its IC50 is 8 µM.

Q: What about the IC50 (U266) of the same molecule?
A: The IC50 was 11 µM.

Q: What about the IC50 (HCT-116) of the same molecule?
A: The IC50 was 6 µM.

Q: What about the IC50 (MDA-231) of the same molecule?
A: The IC50 was 20 µM.

Q: What about the IC50 (MCF7) of the same molecule?
A: Its IC50 is 10 µM.

Q: What about the IC50 (RAJI) of the same molecule?
A: Its IC50 is 12 µM.

Q: And the IC50 (10C9)?
A: The IC50 was 9 µM.

Q: What about the IC50 (SU-DHL9) of the same molecule?
A: The IC50 was 7 µM.

Q: What about the IC50 (SU-DHL1) of the same molecule?
A: Its IC50 is 8 µM.

Q: And the IC50 [7]?
A: The IC50 was 10 to 20 µM.

Q: And the IC50 (LNCap)?
A: The IC50 was 12 µM.
